From patent US12605451B2, “Targeted plasma protein degradation” (Novartis AG, priority 2020, dated 2026)
Like-named read-outs stand apart in the source and are kept apart here. Positions of bridges follow the written chain, without caps; N, C: chain ends. Non-standard residues stand in square brackets, D forms with d. Residues, ends and D or L forms follow the SMILES beside them. *: point of attachment. X4 = CC(=O)N[C@H]1[C@H](OCCCCC(=O)NCCCNCC(=O)CCOCC(COCCC(=O)NCCCNC(=O)CCCCO[C@@H]2O[C@H](CO)[C@H](O)[C@H](O)[C@H]2NC(C)=O)(COCCC(=O)NCCCNC(=O)CCCCO[C@@H]2O[C@H](CO)[C@H](O)[C@H](O)[C@H]2NC(C)=O)NC(=O)CCCCCCC(=O)*)O[C@H](CO)[C@H](O)[C@@H]1O; X6 = O=C(CCCO[C@@H]1OC(CO[C@H]2OC(CO[C@H]3OC(CO)[C@@H](O)C(O)C3C[C@H]3OC(COP(=O)(O)O)[C@@H](O)C(O)C3O)[C@@H](O)C(O)C2O)[C@@H](O)C(O[C@H]2OC(CO)[C@@H](O)C(O)C2O[C@H]2OC(COP(=O)(O)O)[C@@H](O)C(O)C2O)C1O)NNC(=O)CO/N=C/c1ccc(C(=O)*)cc1; X7 = O=C(OC[C@@H]1[C@@H]2CCc3c(nnn3CCCCCCO[C@H](O[C@@H](/C=N/OCCO[C@H]3O[C@H](CCP(=O)(O)O)[C@@H](O)[C@H](O)[C@@H]3O)CO)[C@H](O)/C=N\OCCO[C@H]3O[C@H](CCP(=O)(O)O)[C@@H](O)[C@H](O)[C@@H]3O)CC[C@@H]21)*; X2 = CC(=O)N[C@H]1[C@H]2OC[C@](COCCOCCOCCOCCn3cc(COCC(COCc4cn(CCOCCOCCOCCOC[C@@]56CO[C@@H](O5)[C@H](NC(C)=O)[C@@H](O)[C@H]6O)nn4)NC(=O)CCOCCOCCOCCOCCC(=O)*)nn3)(O2)[C@H](O)[C@@H]1O; X1 = CC(=O)N[C@H]1[C@H]2OC[C@](COCCOCCOCCOCCn3cc(COCCNC(=O)CCOCCOCCOCCOCCC(=O)*)nn3)(O2)[C@H](O)[C@@H]1O; Bip = N[C@@H](Cc1ccc(-c2ccccc2)cc1)C(=O)O; NMeA = CN[C@@H](C)C(=O)O

Legend:
[1] = target: T1, human ASGPR1 (Homo sapiens, UniProt P07306); experiment: ASGPR1 SPR direct binding (Biacore, SA chip); details: Bifunctional Compound (PCSK9 series), Table 9, read-out: ASGPR binding KD
T1 construct: Recombinant extracellular domain of human ASGPR1 with N-terminal biotinylated Avitag
T1 sequence (P07306 62-291 limits assumed): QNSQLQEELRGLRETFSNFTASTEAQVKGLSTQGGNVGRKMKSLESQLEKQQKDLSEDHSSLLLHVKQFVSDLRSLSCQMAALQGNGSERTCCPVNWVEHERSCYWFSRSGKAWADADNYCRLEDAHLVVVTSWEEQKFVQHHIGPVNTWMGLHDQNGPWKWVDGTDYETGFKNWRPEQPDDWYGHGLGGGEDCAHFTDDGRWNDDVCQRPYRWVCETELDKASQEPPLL
Description: SPR was used to obtain the binding data for ASGP receptor ligand compound (int-CC2), either alone or as part of the bifunctional compounds (BFC-13), (BFC-15) and (BFC16).
(§1) ASGPR1 SPR experiments were performed on either Biacore T200 or Biacore 8K. The assay was optimized for Biacore (Streptavidin) SA chip in running buffer consisting of 20 mM HEPES, 300 mM NaCl, 2 mM CaCl2, 0.01% tween-20, 2% DMSO, pH 7.4. Recombinant extracellular domain of human ASGPR1 with N-terminal biotinylated Avitag was diluted to 20 μg/mL in running buffer, and immobilized onto SA chip after it was preconditioned with at least four 60-second injections at 30 uL/min of 1 M NaCl/40 mM NaOH solution. Protein immobilization level varied from 500 RU to 3500 RU dependent on analytes' molecular weight, for targeted Rmax of 30 RUs. Direct binding of analytes to ASGPR1 was observed when a dose response titration of analytes in 2% DMSO was flown over the immobilized protein. Data analysis was done on either Biacore T200 Evaluation Software or Biacore Insight Evaluation Software.
SPR was used to obtain the binding data for ASGP receptor ligand compounds (int-CC2), either alone or as part of the bifunctional compounds (BFC1).
as §1, with “Biacore” for “Biacore (Streptavidin)”

[2] = target: T2, human PCSK9 (Homo sapiens, UniProt Q8NBP7); experiment: SPR binding to biotinylated human PCSK9 (Proteon XPR36); details: Bifunctional Compound; SPR; read-out: PCSK9 KD
T2 construct: Purified recombinant full length human PCSK9 with C-terminal biotinylated Avitag
T2 sequence (Q8NBP7 153-692): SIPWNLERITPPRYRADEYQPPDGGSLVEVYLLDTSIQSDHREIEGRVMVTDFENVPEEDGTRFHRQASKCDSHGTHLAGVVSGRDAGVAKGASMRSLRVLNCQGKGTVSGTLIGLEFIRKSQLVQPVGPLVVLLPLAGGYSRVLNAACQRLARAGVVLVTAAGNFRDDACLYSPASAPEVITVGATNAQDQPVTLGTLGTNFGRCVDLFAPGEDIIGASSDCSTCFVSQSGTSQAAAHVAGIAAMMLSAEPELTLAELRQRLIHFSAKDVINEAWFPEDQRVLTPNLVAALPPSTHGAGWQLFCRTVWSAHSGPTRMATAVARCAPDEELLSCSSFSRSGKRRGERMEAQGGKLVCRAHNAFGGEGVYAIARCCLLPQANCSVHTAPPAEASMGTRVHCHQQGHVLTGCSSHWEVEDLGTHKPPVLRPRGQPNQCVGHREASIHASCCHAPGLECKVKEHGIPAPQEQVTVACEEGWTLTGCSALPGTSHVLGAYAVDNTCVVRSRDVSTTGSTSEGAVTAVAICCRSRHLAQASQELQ
Description: SPR was used to obtain the binding data for PCSK9 receptor ligand compound (C5), either alone or as part of the bifunctional compounds (BFC1), respectively.
SPR Binding experiments were performed on a Proteon XPR36 instrument (Bio-Rad Laboratories). Purified recombinant full length human PCSK9 with C-terminal biotinylated Avitag was used for the assay. Biotinylated human PCSK9 was incubated with fivefold molar excess of bifunctional compound (BFC1) or compound (C5), and immobilized onto a Neutravidin coated sensor chip. (NLC chip, Bio-Rad Laboratories, Inc). After conditioning the chip by injecting running buffer (20 mM Tris pH7.5, 300 mM NaCl, 25 mM CaCl2, 2 mM betamercaptoethanol, 2% DMSO and 0.05% Tween-20) at a flow rate of 0.1 mL/min for 240 s, PCSK9 protein was injected at a protein concentration of 0.02 mg/ml in running buffer with fivefold molar excess of bifunctional compound and a flow rate of 0.03 mL/min followed by 4 washes with running buffer with 1 μM of bifunctional compound (0.1 mL/min for 60 seconds each).
To perform sandwich SPR binding assays, His-ASGPR1 (62-291) protein stocks were diluted with running buffer to a desired concentration. ASGPR was injected at a flow rate of 0.1 mL/min for 240 s and allowed to dissociate for 1200 s. Sensorgrams were recorded for association and dissociation phases. All sensorgrams were processed by subtracting the binding response recorded from a blank control surfaces (or interspot surfaces), followed by subtracting buffer blank injections from the reaction surface. Data were processed with the ProteOn Manager software (version 3.1.0.6, Bio-Rad, Inc.).

[3] = target: M6PR (Homo sapiens, UniProt P11717); experiment: SPR binding to M6P receptor
Chain of M6PR (P11717 whole entry): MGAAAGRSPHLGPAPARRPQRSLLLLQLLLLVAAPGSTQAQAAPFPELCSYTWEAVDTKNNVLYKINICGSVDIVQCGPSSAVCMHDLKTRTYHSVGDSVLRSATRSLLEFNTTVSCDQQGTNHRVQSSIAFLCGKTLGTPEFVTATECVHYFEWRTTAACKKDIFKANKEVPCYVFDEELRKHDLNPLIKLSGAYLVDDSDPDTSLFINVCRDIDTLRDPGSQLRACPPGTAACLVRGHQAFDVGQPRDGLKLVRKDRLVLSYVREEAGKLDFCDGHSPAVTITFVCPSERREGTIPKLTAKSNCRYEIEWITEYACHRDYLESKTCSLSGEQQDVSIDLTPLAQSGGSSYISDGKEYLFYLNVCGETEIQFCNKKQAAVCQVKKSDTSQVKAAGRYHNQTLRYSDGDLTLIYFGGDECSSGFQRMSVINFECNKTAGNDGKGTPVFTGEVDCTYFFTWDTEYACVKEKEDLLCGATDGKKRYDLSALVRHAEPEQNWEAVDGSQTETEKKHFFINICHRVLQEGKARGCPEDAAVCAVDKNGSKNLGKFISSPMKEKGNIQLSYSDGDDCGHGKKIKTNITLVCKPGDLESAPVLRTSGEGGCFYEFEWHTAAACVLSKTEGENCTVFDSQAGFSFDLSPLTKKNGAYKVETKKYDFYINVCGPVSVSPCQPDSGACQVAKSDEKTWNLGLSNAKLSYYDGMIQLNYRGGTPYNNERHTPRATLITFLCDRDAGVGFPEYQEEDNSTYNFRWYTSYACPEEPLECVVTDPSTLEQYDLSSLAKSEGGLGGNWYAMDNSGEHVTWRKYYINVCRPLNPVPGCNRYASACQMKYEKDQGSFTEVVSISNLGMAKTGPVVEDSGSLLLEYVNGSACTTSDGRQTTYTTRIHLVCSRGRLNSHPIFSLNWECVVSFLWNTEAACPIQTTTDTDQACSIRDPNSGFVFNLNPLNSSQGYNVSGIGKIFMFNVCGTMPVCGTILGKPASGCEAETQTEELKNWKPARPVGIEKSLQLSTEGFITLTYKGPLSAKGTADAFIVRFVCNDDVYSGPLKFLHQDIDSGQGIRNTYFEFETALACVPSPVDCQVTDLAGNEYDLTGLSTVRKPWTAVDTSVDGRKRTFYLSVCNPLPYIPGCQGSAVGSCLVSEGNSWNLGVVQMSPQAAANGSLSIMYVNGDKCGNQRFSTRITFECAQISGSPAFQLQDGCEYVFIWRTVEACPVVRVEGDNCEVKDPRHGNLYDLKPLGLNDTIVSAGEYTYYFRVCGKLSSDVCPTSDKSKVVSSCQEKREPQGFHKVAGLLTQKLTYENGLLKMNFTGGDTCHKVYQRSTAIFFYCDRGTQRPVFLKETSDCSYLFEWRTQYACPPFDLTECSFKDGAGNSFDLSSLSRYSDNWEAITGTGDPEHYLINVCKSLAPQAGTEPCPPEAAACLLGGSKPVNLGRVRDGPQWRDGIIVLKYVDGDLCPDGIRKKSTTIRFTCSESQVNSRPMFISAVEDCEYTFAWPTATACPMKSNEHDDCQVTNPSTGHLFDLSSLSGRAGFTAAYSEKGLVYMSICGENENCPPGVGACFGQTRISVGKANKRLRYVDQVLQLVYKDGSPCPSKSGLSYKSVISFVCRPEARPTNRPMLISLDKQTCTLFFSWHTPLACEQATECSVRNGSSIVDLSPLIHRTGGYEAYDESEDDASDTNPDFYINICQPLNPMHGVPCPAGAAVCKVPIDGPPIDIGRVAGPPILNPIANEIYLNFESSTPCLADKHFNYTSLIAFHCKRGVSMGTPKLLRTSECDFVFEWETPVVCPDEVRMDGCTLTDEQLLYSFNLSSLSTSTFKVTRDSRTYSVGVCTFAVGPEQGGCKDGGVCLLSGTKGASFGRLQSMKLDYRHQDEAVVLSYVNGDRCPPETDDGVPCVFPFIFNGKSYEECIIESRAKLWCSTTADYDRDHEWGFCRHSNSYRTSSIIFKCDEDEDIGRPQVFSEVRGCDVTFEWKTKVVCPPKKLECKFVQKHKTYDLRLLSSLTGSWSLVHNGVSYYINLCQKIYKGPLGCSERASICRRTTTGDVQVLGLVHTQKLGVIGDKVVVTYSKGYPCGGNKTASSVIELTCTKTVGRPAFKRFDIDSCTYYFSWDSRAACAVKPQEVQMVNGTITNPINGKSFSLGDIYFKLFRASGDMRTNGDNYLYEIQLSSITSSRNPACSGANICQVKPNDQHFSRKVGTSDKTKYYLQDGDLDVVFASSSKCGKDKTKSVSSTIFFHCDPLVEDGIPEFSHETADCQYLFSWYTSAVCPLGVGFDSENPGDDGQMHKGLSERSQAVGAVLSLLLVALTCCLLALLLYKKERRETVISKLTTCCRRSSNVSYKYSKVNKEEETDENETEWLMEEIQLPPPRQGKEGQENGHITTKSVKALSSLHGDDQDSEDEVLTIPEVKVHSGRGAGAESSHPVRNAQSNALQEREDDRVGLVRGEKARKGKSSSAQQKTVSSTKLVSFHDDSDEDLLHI
Text: SPR was used to obtain the binding data for M6P receptor ligands compounds (int-CC6), either alone or as part of the bifunctional compound (BFC-2).

Kd [1] [nM]	Kd [2] [nM]	Kd ([3]; Free Ligand, SPR, read-out: M6PR binding KD) [nM]	SMILES	Kd [3] [nM]
0.32	3.9	–	CC(=O)N[C@H]1[C@H](OCCCCC(=O)NCCCNCC(=O)CCOCC(COCCC(=O)NCCCNC(=O)CCCCO[C@@H]2O[C@H](CO)[C@H](O)[C@H](O)[C@H]2NC(C)=O)(COCCC(=O)NCCCNC(=O)CCCCO[C@@H]2O[C@H](CO)[C@H](O)[C@H](O)[C@H]2NC(C)=O)NC(=O)CCCCCCC(=O)NCCCC[C@H](NC(=O)CNC(=O)[C@@H]2CSCC(=O)N[C@@H](Cc3ccccc3)C(=O)N[C@@H](C(C)C)C(=O)N3CCC[C@H]3C(=O)N[C@@H]([C@@H](C)O)C(=O)N[C@@H]([C@@H](C)O)C(=O)N[C@@H](Cc3ccc(-c4ccccc4)cc3)C(=O)N(C)[C@@H](C)C(=O)N[C@@H](Cc3ccc(-c4ccccc4)cc3)C(=O)N(C)[C@@H](C)C(=O)N[C@@H](CCC(=O)O)C(=O)N[C@@H](C)C(=O)N3CCC[C@H]3C(=O)N2)C(N)=O)O[C@H](CO)[C@H](O)[C@@H]1O [BFC-1] ({CH2CO}-FVPTT[Bip][NMeA][Bip][NMeA]EAPCGK(X4)-NH2; thioether N-13)	–
–	–	–	CC(C)[C@@H]1NC(=O)[C@H](Cc2ccccc2)NC(=O)CSC[C@@H](C(=O)NCC(=O)N[C@@H](CCCCNC(=O)c2ccc(/C=N/OCC(=O)NNC(=O)CCCO[C@@H]3OC(CO[C@H]4OC(CO[C@H]5OC(CO)[C@@H](O)C(O)C5C[C@H]5OC(COP(=O)(O)O)[C@@H](O)C(O)C5O)[C@@H](O)C(O)C4O)[C@@H](O)C(O[C@H]4OC(CO)[C@@H](O)C(O)C4O[C@H]4OC(COP(=O)(O)O)[C@@H](O)C(O)C4O)C3O)cc2)C(N)=O)NC(=O)[C@@H]2CCCN2C(=O)[C@H](C)NC(=O)[C@H](CCC(=O)O)NC(=O)[C@H](C)N(C)C(=O)[C@H](Cc2ccc(-c3ccccc3)cc2)NC(=O)[C@H](C)N(C)C(=O)[C@H](Cc2ccc(-c3ccccc3)cc2)NC(=O)[C@H]([C@@H](C)O)NC(=O)[C@H]([C@@H](C)O)NC(=O)[C@@H]2CCCN2C1=O (stereo partly shown) [BFC-2] ({CH2CO}-FVPTT[Bip][NMeA][Bip][NMeA]EAPCGK(X6)-NH2; thioether N-13)	7.19
–	–	–	CC(C)[C@@H]1NC(=O)[C@H](Cc2ccccc2)NC(=O)CSC[C@@H](C(=O)NCC(=O)N[C@@H](CCCCNC(=O)OC[C@@H]2[C@@H]3CCc4c(nnn4CCCCCCO[C@H](O[C@@H](/C=N/OCCO[C@H]4O[C@H](CCP(=O)(O)O)[C@@H](O)[C@H](O)[C@@H]4O)CO)[C@H](O)/C=N\OCCO[C@H]4O[C@H](CCP(=O)(O)O)[C@@H](O)[C@H](O)[C@@H]4O)CC[C@@H]32)C(N)=O)NC(=O)[C@@H]2CCCN2C(=O)[C@H](C)NC(=O)[C@H](CCC(=O)O)NC(=O)[C@H](C)N(C)C(=O)[C@H](Cc2ccc(-c3ccccc3)cc2)NC(=O)[C@H](C)N(C)C(=O)[C@H](Cc2ccc(-c3ccccc3)cc2)NC(=O)[C@H]([C@@H](C)O)NC(=O)[C@H]([C@@H](C)O)NC(=O)[C@@H]2CCCN2C1=O [BFC-4] ({CH2CO}-FVPTT[Bip][NMeA][Bip][NMeA]EAPCGK(X7)-NH2; thioether N-13)	110
90	4.6	–	CC(=O)N[C@H]1[C@H]2OC[C@](COCCOCCOCCOCCn3cc(COCCNC(=O)CCOCCOCCOCCOCCC(=O)NCCCC[C@H](NC(=O)CNC(=O)[C@@H]4CSCC(=O)N[C@@H](Cc5ccccc5)C(=O)N[C@@H](C(C)C)C(=O)N5CCC[C@H]5C(=O)N[C@@H]([C@@H](C)O)C(=O)N[C@@H]([C@@H](C)O)C(=O)N[C@@H](Cc5ccc(-c6ccccc6)cc5)C(=O)N(C)[C@@H](C)C(=O)N[C@@H](Cc5ccc(-c6ccccc6)cc5)C(=O)N(C)[C@@H](C)C(=O)N[C@@H](CCC(=O)O)C(=O)N[C@@H](C)C(=O)N5CCC[C@H]5C(=O)N4)C(N)=O)nn3)(O2)[C@H](O)[C@@H]1O [BFC-5] ({CH2CO}-FVPTT[Bip][NMeA][Bip][NMeA]EAPCGK(X1)-NH2; thioether N-13)	–
< 1	5.8	–	CC(=O)N[C@H]1[C@H]2OC[C@](COCCOCCOCCOCCn3cc(COCC(COCc4cn(CCOCCOCCOCCOC[C@@]56CO[C@@H](O5)[C@H](NC(C)=O)[C@@H](O)[C@H]6O)nn4)(COCc4cn(CCOCCOCCOCCOC[C@@]56CO[C@@H](O5)[C@H](NC(C)=O)[C@@H](O)[C@H]6O)nn4)NC(=O)CCOCCOCCOCCOCCC(=O)NCCCC[C@H](NC(=O)CNC(=O)[C@@H]4CSCC(=O)N[C@@H](Cc5ccccc5)C(=O)N[C@@H](C(C)C)C(=O)N5CCC[C@H]5C(=O)N[C@@H]([C@@H](C)O)C(=O)N[C@@H]([C@@H](C)O)C(=O)N[C@@H](Cc5ccc(-c6ccccc6)cc5)C(=O)N(C)[C@@H](C)C(=O)N[C@@H](Cc5ccc(-c6ccccc6)cc5)C(=O)N(C)[C@@H](C)C(=O)N[C@@H](CCC(=O)O)C(=O)N[C@@H](C)C(=O)N5CCC[C@H]5C(=O)N4)C(N)=O)nn3)(O2)[C@H](O)[C@@H]1O [BFC-6]	–
7	3.5	–	CC(=O)N[C@H]1[C@H]2OC[C@](COCCOCCOCCOCCn3cc(COCC(COCc4cn(CCOCCOCCOCCOC[C@@]56CO[C@@H](O5)[C@H](NC(C)=O)[C@@H](O)[C@H]6O)nn4)NC(=O)CCOCCOCCOCCOCCC(=O)NCCCC[C@H](NC(=O)CNC(=O)[C@@H]4CSCC(=O)N[C@@H](Cc5ccccc5)C(=O)N[C@@H](C(C)C)C(=O)N5CCC[C@H]5C(=O)N[C@@H]([C@@H](C)O)C(=O)N[C@@H]([C@@H](C)O)C(=O)N[C@@H](Cc5ccc(-c6ccccc6)cc5)C(=O)N(C)[C@@H](C)C(=O)N[C@@H](Cc5ccc(-c6ccccc6)cc5)C(=O)N(C)[C@@H](C)C(=O)N[C@@H](CCC(=O)O)C(=O)N[C@@H](C)C(=O)N5CCC[C@H]5C(=O)N4)C(N)=O)nn3)(O2)[C@H](O)[C@@H]1O (stereo partly shown) [BFC-7] ({CH2CO}-FVPTT[Bip][NMeA][Bip][NMeA]EAPCGK(X2)-NH2; thioether N-13)	–
100	2.3	–	COC[C@H]1NC(=O)[C@@H](CCCNC(=O)CCCCCCC(=O)NC(COCCC(=O)NCCCNC(=O)CCCCO[C@H]2O[C@@H](CO)[C@@H](O)[C@@H](O)[C@@H]2NC(C)=O)(COCCC(=O)NCCCNC(=O)CCCCO[C@H]2O[C@@H](CO)[C@@H](O)[C@@H](O)[C@@H]2NC(C)=O)COCCC(=O)NCCCNC(=O)CCCCO[C@H]2O[C@@H](CO)[C@@H](O)[C@@H](O)[C@@H]2NC(C)=O)N(Cc2ccc(Cl)cc2Oc2ccc(-c3cnc(CN(C)C)n3C)cc2)C(=O)C[C@H](Cc2ccccc2)C(=O)N(C)[C@@H]2CCCC[C@H]2NC(=O)C[C@@H](Cc2ccc(Cl)cc2)N(C)C1=O [BFC-10]	–
–	–	0.327	NOCC(=O)NNC(=O)CCCO[C@@H]1OC(CO[C@H]2OC(CO[C@H]3OC(CO)[C@@H](O)[C@H](O)C3O[C@H]3OC(COP(=O)(O)O)[C@@H](O)C(O)[C@H]3O)[C@@H](O)[C@H](O)C2O)[C@@H](O)[C@H](O[C@H]2OC(CO)[C@@H](O)C(O)[C@H]2O[C@H]2OC(COP(=O)(O)O)[C@@H](O)C(O)[C@H]2O)C1O (stereo partly shown) [int-CC6]	–
